Patent EP4455142A1, “NOVEL INHIBITOR OF QPCTL AND/OR QC” (Scenic Immunology B.V., priority 2023, dated 2024)

Key:
[1] = molecular target: T1, human isoQC (Homo sapiens, UniProt Q9NXS2); experiment: Assay 1 - isoQC potency, fluorescent enzymatic assay (H-Gln-AMC, coupled pGAPase detection); assay type: biochemical; conditions: recombinant isoQC, 1 hour at 37°C
T1 construct: The Golgi luminal, enzymatically active region of human isoQC (S53-L382; see, e.g., Huang et al., 2011); GST (with enterokinase site) (N, cleaved yes); made in house; host or cells: E. coli
T1 sequence (Q9NXS2 53-382): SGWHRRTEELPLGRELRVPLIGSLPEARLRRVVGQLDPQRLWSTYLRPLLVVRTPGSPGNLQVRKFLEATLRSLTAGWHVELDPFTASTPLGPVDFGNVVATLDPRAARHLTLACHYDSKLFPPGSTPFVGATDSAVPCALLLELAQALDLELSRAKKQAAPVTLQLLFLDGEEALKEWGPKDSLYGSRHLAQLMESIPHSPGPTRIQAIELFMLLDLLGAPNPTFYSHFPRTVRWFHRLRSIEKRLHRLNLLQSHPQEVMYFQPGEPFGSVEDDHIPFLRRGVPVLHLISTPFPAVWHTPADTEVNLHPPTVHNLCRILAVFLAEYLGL
Description: The Golgi luminal, enzymatically active region of human isoQC (S53-L382; see, e.g., Huang et al., 2011) was obtained by expression in E. coli of an N-terminally GST Enterokinase and C-terminally 6xHis tagged construct in the pET41(+) vector and subsequent purification using Ni-NTA IMAC. Enterokinase digestion ensued, followed by another Ni-NTA IMAC purification, Superdex75 based size exclusion and finally a spin concentration using a 10 kDa molecular weight cutoff. The final protein is formulated in 50 mM Tris-HCl, 150 mM NaCl, 50% Glycerol, pH 7.8.
Pyroglutamylation was measured by conversion of glutamine-4-amino-7-methylcoumarine (H-Gln-AMC, Bachem) to pyroglutamyl-AMC, which is subsequently a specific substrate for pyroglutamylaminopeptidase (pGAPase, Qiagen), releasing free AMC which can be fluorescently detected. For a typical inhibition assay, 7.5 µL aliquots of threefold dilutions of test compound in 50mM Tris pH8 buffer were plated in 384-well plates. 15 µL 20 µM hGln-AMC (diluted from a 40 mM stock dissolved in 25 mM HEPES using 50 mM Tris-HCl 25 pH 8.0) was added to each well. Finally, 7.5 µL, 3 ng/µL recombinant isoQC enzyme was added and the reaction mixture was incubated for 1 hour at 37°C. A 5 minute incubation at 98°C was then performed to denature the isoQC enzyme and stop the reaction.
To detect the amount of pyroglutamyl-AMC formed, a 0.125 U/mL pGAPase enzyme diluted in 50 mM Tris-HCl pH 8.0 containing 10 mM dithiothreitol (DTT) solution was prepared. 25 µL of the pyroglutamylation reaction mixture was transferred into an empty plate and to that, 25 µL of the pGAPase enzyme solution was added. Plates were then incubated for 25 minutes at room temperature before fluorescence readings were taken on an Envision2 plate reader with excitation set at 380 nm and emission at 450 nm. DMSO concentrations during the assay never exceeded 1% and activities were compared to controls containing only the same amount of DMSO and no test compound. Controls were taken along containing pyroglutamylated-AMC (Bachem, dissolved at 10 mM in DMSO) instead of H-Gln-AMC to control for pGAPase inhibition.
IC50 values are calculated using non-linear regression analysis with GraphPad Prism software.

[2] = CACO-2-based cell-permeation and efflux; assay type: in vitro ADME; conditions: human, 2 µM compound, pH 7.40; for Papp A→B at 2 h, 2 µM: Caco-2, pH 7.4, A2B; for Papp B→A at 2 h, 2 µM: Caco-2, pH 7.4, B2A
Protocol: CACO-2 (ATCC, Manassas, VA, USA) monolayers on polyethylene membranes in 96-well insert plates were incubated for 2 hours in 5% C02, 37°C with 2 µM compound tested bidirectionally in duplicate using HBSS with 10 mM HEPES at pH 7.40 ±0.05 as transport buffer. Final DMSO Concentrations were adjusted to less than 1%. All samples were mixed with acetonitrile containing internal standard and centrifuged at 3220 x g for 10 minutes. Subsequently, 100 µL supernatant solution was diluted with 100 µL distilled water for LC/MS/MS analysis. Lucifer yellow rejection assays were applied after the transport assay to ensure CACO-2 cell monolayer integrity.
The apparent permeability coefficient Papp (cm/s) was calculated using the equation: Papp = (dCr/dt) × Vr/(A×CO) [formula] where dCr/dt is the cumulative concentration of compound in the receiver chamber as a function of time (µM/s); Vr is the solution volume in the receiver chamber (0.075 mL on the apical side, 0.25 mL on the basolateral side); A is the surface area for the transport, i.e., 0.0804 cm^2 or the area of the monolayer; CO is the initial concentration in the donor chamber (µM).

[3] = Microsomal stability, mouse (MLM); assay type: in vitro ADME, CD-1 mouse; conditions: mouse liver microsomes, 0.5 mg protein/mL, 1 µM test compound
Protocol: (§1) In order to assess metabolic stability of test compounds, commercially acquired CD-1 mouse liver microsome preparations were incubated in 100 µL at a final concentration of 0.5 mg protein/mL, 1 µM test compound, 0.99% methanol and 0.01% DMSO, after a 10 minute pre-incubation at 37°C and addition of 0.1 volumes 10 U/mL NADPH in 10 mM MgCl2. Reactions were stopped by addition of 300 µL cold acetonitrile containing internal standards at t = 0, 5, 10, 20, 30, and 60 minutes. Samples were submitted to LC-MS/MS analysis subsequently and the slope of linear regression of time versus In(% Remaining concentration) was derived to calculate t½ as t½= In(2) /(-Slope). Then Clint(mic) and Clint(liver) were calculated as follows: CLint(mk) = (0.693)/(In vitro T1/2) · (1)/(mg/mL microsomal protein in reaction system) [formula] CLint(liver) = CLint(mic) · (mg microsomes)/(g liver) · (g liver)/(kg body weight) [formula]
Where 45 mg microsomal protein/g liver and 88 g liver/kg mouse bodyweight were used as standardized parameters for mouse microsomes.

[4] = Microsomal stability, human (HLM); assay type: in vitro ADME; conditions: liver microsomes, 0.5 mg protein/mL, 1 µM test compound
Protocol: as §1
The same procedure was performed for human microsomes, SD rat microsomes and (beagle) dog microsomes.
Where 45 mg microsomal protein/g liver and 20 g liver/kg human bodyweight were used as standardized parameters for human microsomes.

Row | SMILES | IC50 [1] [nM] | Papp A→B at 2 h, 2 µM [2] [×10⁻⁶ cm/s] | Papp B→A at 2 h, 2 µM [2] [×10⁻⁶ cm/s] | CLint scaled at 1 µM [3] [mL/min/kg] | CLint scaled at 1 µM [4] [mL/min/kg]
1 | O=C1OCC(c2ccc(N3CCCC3)cc2)N1c1ccc2[nH]cnc2c1 (single isomer, unassigned) [(18)-ent2] | 23.9 | 2.8 | 18.8 | 488 | 73.8
2 | O=C1OC[C@H](c2ccc(-c3cnn(C(F)(F)F)c3)cc2F)N1c1ccc2[nH]cnc2c1 [Compound (1)] | 1.7 | 2 | 21.9 | 67.5 | < 8.6
3 | O=C1OCC(c2ccc(C3CCC(F)(F)CC3)cc2)N1c1ccc2[nH]cnc2c1 (single isomer, unassigned) [(19)-ent2] | 35.8 | 3.9 | 23.9 | 339 | 19.7
